Assay results: patent US7968556B2, “Heteroaryl compounds, compositions thereof, and methods of treatment therewith” (Signal Pharmaceuticals, LLC, priority 2006, dated 2011)

What was measured:
[1] = biological target: mTOR (Homo sapiens, UniProt P42345); assay: mTOR HTR-FRET Assay; assay type: biochemical
Description: The following is an example of an assay that can be used to determine the mTOR inhibitory activity of a test compound. Reagents are prepared as follows:
“Simple TOR buffer” (used to dilute high glycerol TOR fraction): 10 mM Tris pH 7.4, 10 mM NaCl, 0.1% Tween-20, 1 mM DTT (from 1M stock frozen at −20° C. just prior to use). For convenience a large quantity of “Simple TOR buffer” w/o DTT can be stored at 4° C. It can be brought to room temperature and DTT added just prior to dilution of TOR fraction.
5XKB/5XMn/5×ATP solution (used to dilute substrate GST-p70S6kin 81 a.a. just prior to use) (40 ml screen quantity shown):
Enzyme solution: Dilute TOR fraction 1:14 in “Simple TOR Buffer”. For current lot that is 640 μg/ml TOR fraction diluted 14× to yield 45.7 μg/ml TOR in buffer (i.e. 7.85 ml TOR pooled fraction+102.1 ml Simple TOR buffer=110 ml 14× diluted TOR fraction). Each Enzyme Lot must be QC'd prior to assay.
Substrate solution: This may be prepared just prior to assay if preferred. Dilute 5.3 mg/ml GST-p70S6kinase fragment stock to 3.5 μg/ml (97 nM) working stock in 5XKB/5XMn/5×ATP solution (i.e. 26.41 μL (5.3 mg/ml) GST-p70S6+40 ml 5XKB/5XMn/5×ATP=40 ml 3.5 μg/ml (97 nM)).
Assay Buffer (for dilution of Antibodies used in Antibody Detection Reagent):
Antibody Detection Reagent (this reagent should be made just prior to addition to Assay Plates):
Using PlateTrak program (Screen) or Matrix Pipettor (SAR), 19.5 μL of diluted TOR fraction is added to assay plate in all test, reference or positive control wells. 19.5 μL of “Simple TOR buffer” is added to all negative control wells. If treating multiple plates with the same compounds, can increase volume of enzyme to multiples of 19.5 μL in a tall 384 well polypropylene plate.
Using EP3, 0.5 μl of test, reference or control DMSO is added to each well with mixing. Plates are incubated for 30 minutes at room temperature.
Using PlateTrak program (Screen) or Matrix Pipettor (SAR) 5 μL of 5XKB/5XMn/5×ATP/5× substrate solution is added to each well of the assay plate to start the reaction. The solutions are mixed well and incubated for 2 hours at room temperature.
Using PlateTrak program (Screen) or Matrix Pipettor (SAR) 5 μL of 60 mM EDTA is added to stop the reaction. The solutions are mixed well and allowed to sit for 15-20 minutes before the next step.
Using PlateTrak program (Screen) or Matrix Pipettor (SAR) 10 μl of Antibody Detection Reagent is added. The solutions are mixes well and incubated for 5 hours to O/N to allow antibodies to form complexes with phosphorylated substrate.
Plates are read on AnalystHT using protocol Multi-Method protocol.

[2] = biological target: T1, IKK-2 (Homo sapiens, UniProt O14920, S177E/S181E); assay: IKK-2 screening assay (IKK2EE 33P Assay / IKK2EE NEMO HTRF Assay); assay type: biochemical
T1 sequence (O14920 1-756 S177E/S181E): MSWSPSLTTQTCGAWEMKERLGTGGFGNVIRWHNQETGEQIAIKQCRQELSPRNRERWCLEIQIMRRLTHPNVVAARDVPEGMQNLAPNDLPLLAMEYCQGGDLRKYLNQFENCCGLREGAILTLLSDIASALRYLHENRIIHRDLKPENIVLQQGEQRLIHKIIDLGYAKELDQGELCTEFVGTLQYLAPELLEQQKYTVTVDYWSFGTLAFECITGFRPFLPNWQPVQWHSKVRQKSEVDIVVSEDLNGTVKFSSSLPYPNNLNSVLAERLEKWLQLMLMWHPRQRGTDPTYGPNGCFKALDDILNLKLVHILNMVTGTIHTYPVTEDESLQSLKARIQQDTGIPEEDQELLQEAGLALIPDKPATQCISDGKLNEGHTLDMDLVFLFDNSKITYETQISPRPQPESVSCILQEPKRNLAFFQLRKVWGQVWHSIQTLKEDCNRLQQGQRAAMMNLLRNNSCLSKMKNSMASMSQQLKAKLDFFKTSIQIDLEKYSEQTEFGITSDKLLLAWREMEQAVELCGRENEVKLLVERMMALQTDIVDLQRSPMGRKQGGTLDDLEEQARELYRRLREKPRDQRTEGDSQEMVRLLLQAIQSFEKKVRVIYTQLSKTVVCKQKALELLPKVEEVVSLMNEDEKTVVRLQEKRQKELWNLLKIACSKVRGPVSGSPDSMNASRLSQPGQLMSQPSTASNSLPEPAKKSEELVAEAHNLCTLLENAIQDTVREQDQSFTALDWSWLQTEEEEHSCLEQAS
Description: The following is an example of an assay that can be used to determine the IKK2EE inhibitory activity of a test compound.
A reaction buffer (pH 7.8) is prepared containing HEPES (20 mM), MgCl2 (10 mM), EDTA (0.1 mM), DTT (1 mM) and Triton X-100 (0.004%). IKK2EE (0.75 μg/ml is used. GST-IKBα (50 μg/ml) is used as substrate. Adenosine 5′-triphosphate (1.5 μM with ^33P-ATP 5 nCi/μl) is used. Reactions are stopped with trichloroacetic acid (6.25%).
Appropriate amounts of test compounds or controls in 100% DMSO are added to the assay plate. A peptide-substrate solution (PSS) is prepared by adding peptide stock to an appropriate volume of buffer (peptide concentration in the PSS will be about 100 μg/ml). An enzyme-peptide solution (EPS) is prepared by adding enzyme stock to an appropriate volume of PSS (the enzyme concentration in the EPS will be about 1 μg/ml). An ATP solution is prepared by adding ATP stock to an appropriate volume of buffer (the ATP concentration will be 15 μM).
85 μl of EPS is added to the assay wells (or PSS to positive control wells) of 96 well polypropylene plates. The ATP solution is then completed by adding ^33P-ATP (to a final concentration of 50 μCi/ml).
The reaction is initiated by adding 10 μl ATP solution to each well. Plates are shaken from about 12 seconds and allowed to incubate at room temperature for 1 hours. 100 μl of trichloroacetic acid solution (12.5%) is added to stop the reaction and the plates are incubated at room temperature for at least 10 minutes. The assay plates are harvested onto a Millipore Multiscreen harvest Plate FC using an appropriate harvester and the harvest plates are washed with 1×PBS solution for about 10 seconds (continuous flow). Harvest plates are allowed to dry thoroughly and the bottoms of the plates are sealed. 20-50 μl of Microscint20 is added to each well, tops are sealed and plates are read using an appropriate scintillation counter.
A reaction buffer (pH 7.6) is prepared containing HEPES (20 mM), MgCl2 (10 mM), EDTA (0.05 mM), DTT (1 mM) and Triton X-100 (0.004%). IKK2EE-NEMO (0.7 μg/ml is used. GST-IKBα (0.5 μg/ml) is used as substrate. Adenosine 5′-triphosphate (1.5 μM) is used. Detection reagents used are mouse anti-P-IKBα (30 ng/ml), Eu anti-mouse (300 ng/ml) and Cy5 anti-GST (11.5 μg/ml). Reactions are stopped with EDTA (20 mM).
An enzyme solution (ES) is prepared by adding enzyme stock to an appropriate volume of buffer (enzyme concentration in the ES will be about 1.7 ng/ml). A detection mixture (DM) is prepared by adding ATP (final conc. 3.75 μM), mouse anti-P-IKBα (final conc. 75 ng/ml), GST-IKBα (final conc. 1.26 μg/ml), Eu anti-mouse in buffer (final conc. 750 ng/ml).
5 μl of compound (solvated in 10% DMSO) is added to assay wells (or 10% DMSO to control wells) of low binding reaction plates. […] ES is added to assay wells (or buffer to control wells) and the reaction is initiated by adding 10 μl DM to all wells. Plates are incubated at room temperature for 45 minutes. Stop mixture is prepared by adding EDTA (final conc. 70 mM) and Cy5 anti-GST (final conc. 40 μg/ml) to an appropriate volume of buffer. Stop mixture is added and plates are shaken for 20 seconds and incubated at room temperature for at least 3 hours (preferably in the dark). Plates are read on an Analyst HT using Multi-Method HTRF.

IC50 [1] [µM] | IC50 [2] [µM] | melting point [°C] | SMILES
20.1 to 30 | 5.1 to 10 | 298 to 299 | NC(=O)c1nc(-c2cccnc2)nc2c1ncn2-c1ccccc1 [Compound 35, 9-phenyl-2-(pyridin-3-yl)-9H-purine-6-carboxamide]
10.1 to 20 | > 30 | 334 to 335 | NC(=O)c1nc(-c2cccnc2)nc2c1[nH]c(=O)n2Cc1ccccc1 [Compound 1, 9-benzyl-8-oxo-2-(pyridin-3-yl)-8,9-dihydro-7H-purine-6-carboxamide]
> 30 | > 30 | > 330 | CNC(=O)c1nc(-c2cccnc2)nc2c1[nH]c(=O)n2-c1ccccc1 [Compound 2, N-methyl-8-oxo-9-phenyl-2-(pyridin-3-yl)-8,9-dihydro-7H-purine-6-carboxamide]
5.1 to 10 | > 30 | 312 to 313 | COc1ccccc1-n1c(=O)[nH]c2c(C(N)=O)nc(-c3cccc4[nH]ccc34)nc21 [Compound 10, 2-(1H-indol-4-yl)-9-(2-methoxyphenyl)-8-oxo-8,9-dihydro-7H-purine-6-carboxamide]
10.1 to 20 | > 30 | 298 to 304 | NC(=O)c1nc(-c2ccncc2)nc2c1NC(=O)CN2c1ccccc1 [Compound 37, 6-oxo-8-phenyl-2-(pyridin-4-yl)-5,6,7,8-tetrahydropteridine-4-carboxamide]
> 30 | > 30 | 283 to 286 | NC(=O)c1nc(-c2cccnc2Cl)nc2c1[nH]c(=O)n2-c1ccccc1 [Compound 4, 2-(2-chloropyridin-3-yl)-8-oxo-9-phenyl-8,9-dihydro-7H-purine-6-carboxamide]
> 30 | > 30 | 250 to 252 | CN(C)C(=O)c1nc(-c2cccnc2)nc2c1[nH]c(=O)n2-c1ccccc1 [Compound 6, N,N-dimethyl-8-oxo-9-phenyl-2-(pyridin-3-yl)-8,9-dihydro-7H-purine-6-carboxamide]
> 30 | > 30 | 279 to 281 | COc1ncccc1-c1nc(C(N)=O)c2[nH]c(=O)n(-c3ccccc3)c2n1 [Compound 5, 2-(2-methoxypyridin-3-yl)-8-oxo-9-phenyl-8,9-dihydro-7H-purine-6-carboxamide]
0.1 to 5 | 10.1 to 20 |  | NC(=O)c1nc(-c2cccnc2)nc2c1[nH]c(=O)n2C1CCN(C(=O)OCc2ccccc2)CC1 [Compound 32, benzyl 4-(6-carbamoyl-8-oxo-2-(pyridin-3-yl)-7H-purin-9(8H)-yl)piperidine-1-carboxylate]
5.1 to 10 | > 30 | 366 to 367 | Cc1ccccc1-n1c(=O)[nH]c2c(C(N)=O)nc(-c3cccc(O)c3)nc21 [Compound 9, 2-(3-hydroxyphenyl)-8-oxo-9-o-tolyl-8,9-dihydro-7H-purine-6-carboxamide]
0.1 to 5 | > 30 | 360 to 364 | NC(=O)c1nc(-c2cccc(O)c2)nc2c1[nH]c(=O)n2-c1ccccc1Cl [Compound 14, 9-(2-chlorophenyl)-2-(3-hydroxyphenyl)-8-oxo-8,9-dihydro-7H-purine-6-carboxamide]
 | > 30 | > 350 | Cn1c(=O)[nH]c2c(C(N)=O)nc(-c3cccnc3)nc21 [Compound 7, 9-methyl-8-oxo-2-(pyridin-3-yl)-8,9-dihydro-7H-purine-6-carboxamide]
0.1 to 5 | > 30 |  | NC(=O)c1nc(-c2cccc(O)c2)nc2c1[nH]c(=O)n2-c1ccccc1F [Compound 15, 9-(2-fluorophenyl)-2-(3-hydroxyphenyl)-8-oxo-8,9-dihydro-7H-purine-6-carboxamide]
0.1 to 5 | > 30 |  | NC(=O)c1nc(-c2cccc(O)c2)nc2c1[nH]c(=O)n2C1CCCCC1 [Compound 33, 9-cyclohexyl-2-(3-hydroxyphenyl)-8-oxo-8,9-dihydro-7H-purine-6-carboxamide]
 | 20.1 to 30 | 347 to 349 | NC(=O)c1nc(-c2ccccn2)nc2c1[nH]c(=O)n2-c1ccccc1 [Compound 3, 8-oxo-9-phenyl-2-(pyridin-2-yl)-8,9-dihydro-7H-purine-6-carboxamide]
